According to US6972298B2, “Method of treating or inhibiting neutrophil chemotaxis by administering a MEK inhibitor” (Warner-Lambert Company, priority 2001, dated 2005):
“Also recorded” adds a separate entry of the source. Where two headings read alike, the source gives them in different places.

Assays:
[1] = oral bioavailability; conditions: in vivo
[2] = system: IL-8-induced chemotaxis; conditions: cited from earlier work
[3] = in vivo; cited from earlier work
[4] = system: colon cancer cells; conditions: read-out: IC50, decrease of endogenous constitutive MAPK activation or growth in soft agar; cited from earlier work
[5] = system: MEK1/2; assay: kinase assays of MEK1/2 activity in response to IL-8; assay type: cell-based, human; conditions: pre-treatment with inhibitor
Method: (§1) The role of PI3K in IL-8 activation of ERK has been controversial. […] In parallel, kinase assays were performed to examine the MEK1/2 activity in response to IL-8.

[6] = system: IL-8-stimulated neutrophil chemotaxis; assay: In vitro neutrophil chemotaxis, IL-8, transwell chamber assay; assay type: cell-based, human; conditions: for inhibition at 0.01 µM: read-out: inhibition of chemotaxis at 0.01 μM, 0.01 μM inhibitor alone; for IC50: 3.125 nM IL-8, 3 hours
Method: Subsequently, the cells were stimulated with 3.125 nM of IL-8 for a period of 3 hours at which time the migrated cells were quantified using a cell sorter as described elsewhere. Percent inhibition was calculated based on the differences in the number of migrated cells compared to IL-8 alone controls.
The migrated cells were quantitated as described, and the percent inhibition was represented.
Number of cells migrated was measured 3 hours after IL-8 stimulation and expressed as percent control. Each value represents the average ±S.E. obtained from at least three different donors with duplicates in each set.
(§2) Polymorphonuclear leukocytes (PMNs) were isolated from whole blood obtained from healthy human donors. Plasma was separated from the remainder of the blood using a Dextran density gradient. Red blood cells (RBCs) and PMNs were further isolated by centrifugation at 2500 rpm for 15 minutes, using a Lymphoprep sedimentation solution. RBCs were lysed with 0.2% NaCl, neutralized with 1.8% NaCl, and the remaining neutrophils were resuspended in RPMI binding buffer at a final concentration of 10 million cells/mL.
The neutrophil chemotaxis assay was conducted with 1 million cells per well in […] polycarbonate membrane transwell plates (Corning-Costar, Cambridge, Mass.). The various inhibitors were prepared as 1 or 10 mM stock solutions in dimethyl sulphoxide (DMSO). Inhibitor dilutions were prepared in RPMI binding buffer, maintaining a constant final concentration of DMSO in all conditions. Neutrophils were preincubated with the respective inhibitor in the top well of the plate for 30 minutes at room temperature prior to exposure to IL-8. An equivalent concentration of the respective inhibitor was placed in the bottom well to prevent any concentration gradient. DMSO concentration was maintained in all wells as a vehicle control. […] Neutrophils that migrated completely across the 3-μM filter were quantitated using FACS analysis with appropriate forward and sideward scatter. Percentage inhibition relative to the positive control (IL-8 alone) was calculated for each condition after subtracting the blank reading (no IL-8).

[7] = system: IL-8 activation of ERK; assay: IL-8 activation of ERK in human PMNs, Western blot with phospho-specific ERK antibody; assay type: cell-based; conditions: for inhibition of IL-8 activation of ERK at 0.1 μM: 0.1 μM inhibitor
Method: Activation of MAPK was examined by phospho-specific ERK antibody in isolated human PMNs that were stimulated with 3 nM of IL-8 for various periods of time (A). […] The effect of the inhibitors was monitored by measuring p-ERK activity by Western blotting. The blots were normalized using the ERK antibody.
as §2
Neutrophils were preincubated with the respective inhibitor for 30 minutes at room temperature in 1.5-mL microfuge tubes prior to addition of IL-8 (3.125 nM). […] Thus, neutrophils were exposed to IL-8 for 5 minutes at room temperature, after which whole cell lysates were obtained via lysis with RIPA buffer and analyzed by Western blot analysis using phospho specific antibodies, p44/42 MAP (ERK) and p38 MAPK kinase. Standard Western blotting was performed using chemiluminescence. All blots were normalized with the respective nonphosphorylated antibodies.
To confirm IL-8 activation of ERK, neutrophils were stimulated with 3 nM of IL-8 for various periods of time, ranging from 0 to 30 minutes (FIG. 1A).
as §1

[8] = system: IL-8-induced neutrophil recruitment to the skin; assay: IL-8 skin recruitment model (in vivo rabbit neutrophil recruitment assay)
Method: Three hours after the last dose, animals were injected with ^125I IL-8 (10μCi), and 10 minutes later various doses of cold (unlabeled) IL-8 was injected intradermally at local sites on the back of the rabbits. Sixty minutes later, the animals were sacrificed, punch biopsies were performed, and the radiation in the skin was measured using a gamma counter. Each value represents the average±standard deviation error of three representative experiments with three animals in each group and triplicates within each treatment. The asterisk indicates significant (p<0.05) differences between the respective treatments in control animals versus drug-administered animals. […]
In control rabbits, the vehicle was administered. […] The biopsies were weighed and sample-associated radioactivity was determined using a gamma counter (Packard Model #05005, Downers Grove, Ill.).
In each experiment, triplicate samples were obtained for each experimental condition. In studies where IL-8 was not tested or the highest 1-μg dose of IL-8 was not used, the data is expressed as either raw counts or adjusted counts. […] In dose-response studies where the 1-μg dose of IL-8 was used, the weight-normalization background (vehicle-treated skin) was subtracted from weight-normalized treated samples, and the data was then expressed as a percent maximal response to the 1-μg dose of IL-8. […]

[9] = system: PMNs; assay: cytotoxicity on the PMNs; conditions: higher concentrations of the drug

COc1cccc(-c2cc(=O)c3ccccc3o2)c1N [2-(2-amino-3-methoxy-phenyl)-chromen-4-one]
oral bioavailability [1]: orally nonbioavailable | inhibition of IL-8-induced chemotaxis in previous studies [2]: lack of inhibition

O=C(NOCC1CC1)c1ccc(F)c(F)c1Nc1ccc(I)cc1Cl [2-(2-chloro-4-iodo-phenylamino)-N-cyclopropylmethoxy-3,4-difluoro-benzamide]
bioavailability, as recently described [3]: bioavailable | IC50 [4]: 150 nM | inhibition of IL-8 activation of MEK1/2 [5]: inhibited | inhibition of chemotaxis at 0.001 μM ([6]; 0.001 μM inhibitor, 3.125 nM IL-8): minimal inhibition | inhibition at 0.1 µM ([6]; Homo sapiens, Neutrophil, read-out: inhibition of chemotaxis at 0.1 nM IL-8, 0.1 μM inhibitor, 0.1 nM IL-8): ~80% | inhibition at 0.01 µM ([6]; Homo sapiens, Neutrophil): ~50% | inhibition at 0.1 µM ([6]; Homo sapiens, Neutrophil, read-out: inhibition of chemotaxis at 100 nM IL-8, 0.1 μM inhibitor, 100 nM IL-8): ~30% | IC50 ([6]; Homo sapiens, Neutrophil): 140 nM | maximal inhibition of IL-8-induced chemotaxis, compound alone ([6]; maximal block, single agent): 60% | effect on IL-8-induced ERK activation at 0.01 μM ([7]; 0.01 μM inhibitor): blocks ERK activation completely | inhibition of IL-8 activation of ERK at 0.1 μM [7]: almost completely blocks; also recorded: completely inhibited | inhibition of IL-8 activation of ERK at 0.1 μM ([7]; listed as 2-(2-Chloro-4-iodo-phenylamino)-N-cyclopropylmethoxy-3,4-difluoro-benzamide): almost completely blocked | inhibition of IL-8 activation of ERK ([7]; inhibitor 0 to 100 μM for 30 minutes, then IL-8 for 5 minutes): dose dependent inhibition; also recorded: clearly blocked | decrease of IL-8-induced neutrophil recruitment in vivo ([8]; 30 mg/kg PO three times at 8 hour intervals, higher IL-8 concentrations tested): ~50% | number of neutrophils recruited to the skin ([8]; 30 mg/kg PO three times, all IL-8 concentrations tested): consistently decreased

COC[C@H]1OC(=O)c2coc3c2[C@@]1(C)C1=C(C3=O)[C@@H]2CCC(=O)[C@@]2(C)C[C@H]1OC(C)=O [Wortmannin, reference compound]
cytotoxicity effects on the PMNs [9]: No visible cytotoxicity effects | inhibition of chemotaxis at 0.01 μM ([6]; 0.01 μM inhibitor alone, 0.01 µM): 28% | inhibition at 0.001 µM ([6]; Homo sapiens, Neutrophil, read-out: inhibition of chemotaxis at 0.001 μM, 0.001 μM inhibitor, 3.125 nM IL-8): 25 to 30% | inhibition at 0.01 µM ([6]; Homo sapiens, Neutrophil): ~30% | inhibition at 1 µM ([6]; Homo sapiens, Neutrophil, read-out: inhibition of chemotaxis at 1 μM, 1 μM inhibitor, 3.125 nM IL-8): 100% | IC50 ([6]; Homo sapiens, Neutrophil): 20 nM
